Consider 3 compounds from PMC11874007, “Switching Roles—Exploring Concentration-Dependent Agonistic versus Antagonistic Behavior of Integrin Ligands” (Journal of Medicinal Chemistry, 2025).

Values joined by “and” are separate entries in the source; they are usually repeats but may differ in a detail not shown here. Identical values can stand only once.

Assay [1] relates to M21 (αvβ3+), HN (αvβ6+), RKO (α5β1+) cells. The assay is described as follows: Time-dependent cellular uptake of Cy5.5-labeled ligands in cells overexpressing the targeted integrin. The assay is classed as cell-based. The settings on record: state within 30 min, Cy5.5-conjugated ligands, target integrin-expressing cells. The text has this: For intracellular drug delivery, integrin ligands designed as drug-conjugated vehicles have to be easily and selectively internalized by tumor cells (over)expressing the respective targeted integrin subtype. […] It should be noted here that HN, OV-MZ-6, and RKO cells also express low αvβ3 expression levels.
Figure 7 Cellular uptake of Cy5.5-labeled integrin ligands. […] Nuclei were costained with Hoechst 33342 (blue signal) and cell membranes with CellMask Green (green signal). Merge of stains (yellow signal) indicated colocalization of ligands at the cell membrane. Scale bar: 50 μm.
Microchamber cell culture slides were coated with fibronectin (2 μg/mL), followed by cell seeding at a density of 50,000 cells/well. After 24 h of cultivation, cells were treated with integrin ligands L1-Cy5.5 to L5-Cy5.5 (1 μM in 0.01% (w/v) CaCl2 and 0.1% (w/v) BSA in PBS; 250 μL/well) for 3, 30, 60, or 300 min at 37 °C. The cells were washed in PBS/0.01% (w/v) CaCl2 (6 × 800 μL) and the fluorescence signal intensity recorded using the LSM 700 microscope (Zeiss, Jena, Germany). CellMask Green Plasma Membrane Stain was used to stain the cell membrane; nuclei were stained with Hoechst 33342.

For a further assay, the target named is T1, human α5β1-integrin (Homo sapiens, UniProt P05556+P08648).
T1 construct: purchased R&D 3230-A5-050
The assay is described as follows: ELISA-type solid-phase binding assay: soluble α5β1 competing for immobilized fibronectin. As to conditions: competitive ELISA-type assay, referenced to internal standard cilengitide (L2). Here is the method: Prior to the biological evaluation of the ligands, their specificity and subtype-selective affinity was analyzed by an ELISA (enzyme-linked immune sorbent assay)-type solid-phase ligand binding assay[59] by measuring the competitive binding of soluble purified integrins in the presence of the respective ligands to plate-immobilized purified ECM proteins, as described in Experimental Section: vitronectin (for αvβ3-directed ligands), fibronectin (for α5β1-directed ligands), or the latency-associated peptide (LAP) of transforming growth factor-β (TGF-β) (for αvβ6-directed ligands). Then, we determined whether Cy5.5 conjugation of ligands led to altered ligand binding affinities and integrin subtype selectivity compared to the unlabeled compounds. In the following, we describe in detail the alterations detected.
(3) 2.0 μg/mL mouse-anti-human CD51/61 (BD Biosciences, Franklin Lakes, New Jersey, USA; #555504). (4) 2.0 μg/mL anti-mouse IgG-POD (Sigma-Aldrich, #A9044-2ML). Integrin αvβ6: (1) 0.4 μg/mL LAP (TGF-β) (R&D, #246-LP-025), (2) 0.5 μg/mL human αvβ6 (R&D, #3817-AV-050), (3) 1:500 dilution mouse-anti-human αv (MAB1978) (Merck Millipore, #MAB1978), (4) 2.0 μg/mL anti-mouse IgG-POD (Sigma-Aldrich, #A9044-2ML). Integrin α5β1: (1) 0.5 μg/mL human fibronectin (Sigma-Aldrich, #F0895-1MG), (2) 2.0 μg/mL human α5β1 (R&D, 3230-A5-050), (3) 1.0 μg/mL mouse-anti-human CD49e (BD Biosciences, #555651), (4) 2.0 μg/mL anti-mouse IgG-POD (Sigma-Aldrich, #A9044-2 ML). For Western blot analysis, the following antibodies were used: (p-)p44/42^(erk-1/2) (1) 1:300 dilution of rabbit-anti-human p44/42^(erk-1/2) antibody (Cell Signaling Technology, Frankfurt, Germany, #9102) in 3% (w/v) bovine serum albumin (BSA)/TBS-T, (2) 1:5,000 dilution goat-anti-rabbit horseradish-conjugated secondary antibody in 1% (w/v) BSA/TBS-T. Phospho-p44/42^(erk-1/2): (1) 1:200 dilution rabbit-anti-human p44/42^(erk-1/2) (Thr202/Tyr204) antibody (Cell Signaling Technology, #9101) in 3% (w/v) BSA/TBS-T, (2) 1:5,000 dilution goat-anti-rabbit horseradish-conjugated secondary antibody in 1% (w/v) BSA/TBS-T. FAK: (1) 1:300 dilution mouse-anti-human FAK antibody (Cell Signaling Technology, #9102) in 3% (w/v) BSA/TBS-T, (2) 1:5,000 dilution goat-anti-mouse horseradish-conjugated secondary antibody in 1% (w/v) BSA/TBS-T. Phospho-FAK: (1) 1:300 dilution mouse-anti-human p-FAK antibody (Cell Signaling Technology) in 3% (w/v) BSA/TBS-T, (2) 1:5,000 dilution goat-antimouse horseradish-conjugated secondary antibody in 1% (w/v) BSA/TBS-T. Differences in blotting efficiency and protein loading were normalized by using a primary antibody against glyceraldehyde-3-phosphate dehydrogenase (GAPDH, 1:10,000 dilution in 1% (w/v) BSA/TBS-T, at RT for 45 min (Millipore, Schwalbach, Germany) and a secondary horseradish-conjugated goat-anti-mouse antibody (1:10,000 dilution in 1% (w/v) BSA/TBS-T, 40 min at RT).
The integrin binding assay was done to assess the specificity and subtype-selective affinity of L1–L5 and their respective Cy5.5-conjugated ligands by using isolated and purified integrins in cell-free ligand binding assays, as previously published.[59]Table 2 summarizes the used ECM ligands, integrins, and antibodies. In brief, flat-bottom 96-well plates were coated overnight at 4 °C with the natural ECM integrin ligands, vitronectin (for αvβ3-directed ligands), fibronectin (for α5β1-directed ligands), or LAP of TGF-β1 (for αvβ6-directed ligands) (100 μL/well in buffer containing 15 mM Na2CO3, 35 mM NaHCO3, pH 9.6). Subsequently, each well was washed in PBS, 0.01% (v/v) Tween 20, 137 mM NaCl, 2.7 mM KCl, 10 mM Na2HPO4, 2 mM KH2PO4, pH 7.4 (PBS-T), and blocked for unspecific binding events for 1 h at RT in 20 mM Tris–HCl, pH 7.5, 150 mM NaCl, 1 mM CaCl2, 1 mM MgCl2, 1 mM MnCl2, and 1% (w/v) BSA. Meanwhile, dilution series of the different integrin ligands and the internal standards were prepared, ranging from 20 μM to 256 pM in 1:5 dilution steps. […]
(ELISA stands for enzyme-linked immunosorbent assay.)

For another assay, the target named is T2, human αvβ6-integrin (Homo sapiens, UniProt P06756+P18564).
T2 construct: purchased R&D 3817-AV-050
Description: ELISA-type solid-phase binding assay: soluble αvβ6 competing for immobilized LAP (TGF-β). The settings on record: competitive ELISA-type assay, referenced to internal standard RTDLDSLRT

c(FRGDLAFp(NMe)K) [L3]: the “Endocytosis of Cy5.5-conjugated ligand” value in assay [1] is reported as “already completed”.
The IC50 is the concentration that gives 50% inhibition. A low value points to greater potency. On to `C#CCCC(=O)NCCCOc1cc(C)c(C(=O)N[C@@H](CNC(=O)CNC(=O)c2cccc(NC(=N)N)c2)C(=O)O)c(C)c1` [L5, (S)-2-(2,6-Dimethyl-4-(3-(pent-4-ynamido)propoxy)benzamido)-3-(2-(3-guanidinobenzamido)acetamido)propanoic Acid], for which the IC50 at human α5β1-integrin was 1.2 nM and 1.24 nM; at human αvβ6-integrin, greater than 1000 nM.
On to `C#CCCC(=O)NCCCOc1ccc(C(=O)N[C@H](CC(=O)O)Cc2ccc(OCCCNc3cc(OC)ccn3)cc2)cc1` [L1, (S)-4-(4-(3-((4-Methoxypyridin-2-yl)amino)propoxy)phenyl)-3-(4-(3-(pent-4-ynamido)propoxy)benzamido)butanoic Acid], for which the IC50 at human α5β1-integrin amounted to 73.4 ± 16.6 nM; at human αvβ6-integrin it was 152 ± 60.8 nM. The “Endocytosis of Cy5.5-conjugated ligand” value in assay [1] is reported as “started within 30 min”.
